Data on nine compounds can be found in PubChem BioAssay AID210 (DTP/NCI, 2004).

Inconclusive results and toxic doses are left out.

For this experiment, the system named is CD2F1 mice, ip Colon 26 adenocarcinoma, median survival T/C. Put plainly: NCI In Vivo Anticancer Drug Screen. Data for tumor model Colon 26 Adenocarcinoma (intraperitoneal) in CD2F1 (CDF1) mice. To be noted: endpoint: median survival time, higher = longer survival. The method, then: The antitumor activity of compounds was measured in mice bearing transplantable tumors. Survival or tumor size were measured and the results are expressed as the measurement made in the treated group (T) divided by the measurement made in the vehicle treated control group (C). The tumor model used in this assay is Colon 26 Adenocarcinoma (intraperitoneal) in CD2F1 (CDF1) mice

As to `O=C(O)c1ccc(C(=O)O)c(C(=O)O)c1.[NH-]C1CCCCC1[NH-].[Pt+2]`, the T/C is, setting by setting: (dose: 2.0 mg/kg/injection, schedule: Q01DX004 (ip), vehicle: sodium bicarbonate) 106 % of control; (dose: 3.12 mg/kg/injection, schedule: Q04DX003 (ip), vehicle: sodium bicarbonate) 114 % of control; (dose: 4.0 mg/kg/injection, schedule: Q01DX004 (ip), vehicle: sodium bicarbonate) 101 % of control; (dose: 6.25 mg/kg/injection, schedule: Q04DX003 (ip), vehicle: sodium bicarbonate) 111 % of control; (dose: 8.0 mg/kg/injection, schedule: Q01DX004 (ip), vehicle: sodium bicarbonate) 105 % of control; (dose: 8.8 mg/kg/injection, schedule: Q01DX001 (ip), vehicle: saline) 150 % of control. For the same compound, the T/C is 96 % of control (dose: 8.8 mg/kg/injection, schedule: Q01DX001 (iv), vehicle: saline); 105 % of control (dose: 9.1 mg/kg/injection, schedule: Q04DX004 (iv), vehicle: sodium bicarbonate); 167 % of control (dose: 12.5 mg/kg/injection, schedule: Q04DX003 (ip), vehicle: sodium bicarbonate); 87 % of control (dose: 13.2 mg/kg/injection, schedule: Q01DX001 (iv), vehicle: saline); 104 % of control (dose: 13.5 mg/kg/injection, schedule: Q04DX004 (iv), vehicle: sodium bicarbonate); 92 % of control (dose: 19.8 mg/kg/injection, schedule: Q01DX001 (ip), vehicle: saline). For the same compound, the T/C is 114 % of control (dose: 20.0 mg/kg/injection, schedule: Q04DX004 (iv), vehicle: sodium bicarbonate); 167 % of control (dose: 25.0 mg/kg/injection, schedule: Q04DX003 (ip), vehicle: sodium bicarbonate); 96 % of control (dose: 29.6 mg/kg/injection, schedule: Q01DX001 (ip), vehicle: saline); 103 % of control (dose: 35.0 mg/kg/injection, schedule: Q04DX002 (ip), vehicle: sodium bicarbonate); 121 % of control (dose: 44.4 mg/kg/injection, schedule: Q01DX001 (iv), vehicle: saline); 159 % of control (dose: 50.0 mg/kg/injection, schedule: Q04DX003 (ip), vehicle: sodium bicarbonate). The T/C (dose: 100.0 mg/kg/injection, schedule: Q04DX003 (ip), vehicle: sodium bicarbonate) was 101 % of control.

As to `CCCCNC(C)[C@]1(O)Cc2c(O)c3c(c(O)c2[C@@H](OC2CC(N)C(O)C(C)O2)C1)C(=O)c1c(OC)cccc1C3=O` (stereo not given in full), the T/C is 110 % of control (dose: 23.0 mg/kg/injection, schedule: Q07DX002 (iv), vehicle: saline); 122 % of control (dose: 35.0 mg/kg/injection, schedule: Q07DX002 (iv), vehicle: saline); 110 % of control (dose: 54.0 mg/kg/injection, schedule: Q07DX002 (iv), vehicle: saline); 113 % of control (dose: 84.0 mg/kg/injection, schedule: Q07DX002 (iv), vehicle: saline).

`C[C@@]1(CO)[C@H](O)CC[C@@]2(C)[C@H]1CC[C@H]1C[C@@H]3C[C@@]12CC[C@@]3(O)COC(=O)CN`: the T/C is 113 % of control (dose: 12.5 mg/kg/injection, schedule: Q01DX009 (ip), vehicle: saline + alcohol); 95 % of control (dose: 25.0 mg/kg/injection, schedule: Q01DX009 (ip), vehicle: saline + alcohol); 115 % of control (dose: 25.0 mg/kg/injection, schedule: Q04DX003 (iv), vehicle: saline); 106 % of control (dose: 50.0 mg/kg/injection, schedule: Q01DX009 (ip), vehicle: saline + alcohol); 118 % of control (dose: 50.0 mg/kg/injection, schedule: Q04DX003 (iv), vehicle: saline); 94 % of control (dose: 75.0 mg/kg/injection, schedule: Q01DX009 (ip), vehicle: saline + alcohol). In addition, the T/C (dose: 100.0 mg/kg/injection, schedule: Q04DX003 (iv), vehicle: saline) is 100 % of control.

`COc1cccc2c1C(=O)c1c(O)c3c(c(O)c1C2=O)C[C@@](O)(C(C)=O)C[C@@H]3OC1CC(N(Cc2ccccc2)Cc2ccccc2)C(O)C(C)O1` (stereo not given in full): the T/C (dose: 3.0 mg/kg/injection, schedule: Q04DX002 (ip), vehicle: saline with Tween-80) is 104 % of control.

Consider `Nc1nc([Se])c2ncn(C3OC(CO)C(O)C3O)c2n1` (stereo not given), for which the T/C (dose: 4.0 mg/kg/injection, schedule: Q04DX003 (ip), vehicle: saline) was 114 % of control; the T/C (dose: 4.0 mg/kg/injection, schedule: Q04DX003 (ip), vehicle: suspension in saline) is 116 % of control; the T/C (dose: 8.0 mg/kg/injection, schedule: Q04DX003 (ip), vehicle: saline) was 104 % of control; the T/C (dose: 8.0 mg/kg/injection, schedule: Q04DX003 (ip), vehicle: suspension in saline) is 106 % of control; the T/C (dose: 16.0 mg/kg/injection, schedule: Q04DX003 (ip), vehicle: saline) was 109 % of control; the T/C (dose: 16.0 mg/kg/injection, schedule: Q04DX003 (ip), vehicle: suspension in saline) was 114 % of control. The T/C was 111 % of control (dose: 32.0 mg/kg/injection, schedule: Q04DX003 (ip), vehicle: saline); 116 % of control (dose: 32.0 mg/kg/injection, schedule: Q04DX003 (ip), vehicle: suspension in saline); 121 % of control (dose: 64.0 mg/kg/injection, schedule: Q04DX003 (ip), vehicle: saline); 114 % of control (dose: 64.0 mg/kg/injection, schedule: Q04DX003 (ip), vehicle: suspension in saline).

For the compound `[N-]=[N+]=CC(=O)CCC(N)C(=O)O` (stereo not given), the T/C was 102 % of control (dose: 0.2 mg/kg/injection, schedule: Q04DX003 (ip), vehicle: saline); 108 % of control (dose: 0.39 mg/kg/injection, schedule: Q04DX003 (ip), vehicle: saline); 108 % of control (dose: 0.78 mg/kg/injection, schedule: Q04DX003 (ip), vehicle: saline); 111 % of control (dose: 1.56 mg/kg/injection, schedule: Q04DX003 (ip), vehicle: saline); 120 % of control (dose: 3.13 mg/kg/injection, schedule: Q04DX003 (ip), vehicle: saline); 119 % of control (dose: 6.25 mg/kg/injection, schedule: Q04DX003 (ip), vehicle: saline).

In the case of `CCC[P+](c1ccccc1)(c1ccccc1)c1ccccc1`, the T/C (dose: 3.12 mg/kg/injection, schedule: Q04DX003 (ip), vehicle: saline with Tween-80) is 112 % of control; the T/C (dose: 6.25 mg/kg/injection, schedule: Q04DX003 (ip), vehicle: saline with Tween-80) is 107 % of control; the T/C (dose: 12.5 mg/kg/injection, schedule: Q04DX003 (ip), vehicle: saline with Tween-80) is 104 % of control; the T/C (dose: 25.0 mg/kg/injection, schedule: Q04DX003 (ip), vehicle: saline with Tween-80) was 110 % of control; the T/C (dose: 50.0 mg/kg/injection, schedule: Q04DX003 (ip), vehicle: saline with Tween-80) is 110 % of control.

As for `c1cc[c]([Sn][c]2ccccc2)cc1`, the T/C is 97 % of control (dose: 0.62 mg/kg/injection, schedule: Q04DX003 (ip), vehicle: saline with Tween-80); 105 % of control (dose: 0.62 mg/kg/injection, schedule: Q04DX003 (ip), vehicle: saline); 92 % of control (dose: 1.25 mg/kg/injection, schedule: Q04DX003 (ip), vehicle: saline with Tween-80); 112 % of control (dose: 1.25 mg/kg/injection, schedule: Q04DX003 (ip), vehicle: saline); 100 % of control (dose: 2.5 mg/kg/injection, schedule: Q04DX003 (ip), vehicle: saline with Tween-80); 107 % of control (dose: 2.5 mg/kg/injection, schedule: Q04DX003 (ip), vehicle: saline). In addition, the T/C by setting is: (dose: 5.0 mg/kg/injection, schedule: Q04DX003 (ip), vehicle: saline with Tween-80) 108 % of control; (dose: 5.0 mg/kg/injection, schedule: Q04DX003 (ip), vehicle: saline) 117 % of control; (dose: 10.0 mg/kg/injection, schedule: Q04DX003 (ip), vehicle: saline) 86 % of control.

Take `CN(C)CCCNc1ccc(NCCCN(C)C)c2c1C(=O)c1ccccc1C2=O`: the T/C (dose: 4.0 mg/kg/injection, schedule: Q01DX009 (ip), vehicle: saline) was 101 % of control; the T/C (dose: 8.0 mg/kg/injection, schedule: Q01DX009 (ip), vehicle: saline) was 106 % of control; the T/C (dose: 16.0 mg/kg/injection, schedule: Q01DX009 (ip), vehicle: saline) was 100 % of control; the T/C (dose: 32.0 mg/kg/injection, schedule: Q01DX009 (ip), vehicle: saline) is 97 % of control.
